{"source": "patent US6355619B1", "about": "“Peptide tumor cell growth inhibitors” (Board of Regents, The University of Texas System, priority 1996, dated 2002)", "key": {"[1]": {"system": "fMLP-induced neutrophil chemotaxis", "experiment": "Neutrophil chemotaxis stimulated by fMLP", "format": "cell-based, human", "settings": "10 nM fMLP", "method": "FIG. 7. The Effect of Ac-RRWWCR-NH2 (SEQ ID NO:1) on Neutrophil Chemotaxis. Chemotaxis was performed in the presence of increasing concentration of Ac-RRWWCR-NH2 (SEQ ID NO:1) in both upper and lower chamber. Stimulants added to lower chamber were 10 nM IL-8 (●), 10 nM fMLP (▪), or media alone (◯) as control. Analysis of variance was used for multiple comparison.\nChemotaxis was performed using the leading front method as described by Zigmond and Hirsh (1973). IL-8 or controls were placed in the lower well of a Boyden chamber. A five micron pore size, 100 μm. thick cellulose nitrate filter (Sartorius Filter,. Inc., San Francisco, Calif.) was placed on the surface and the chamber was then assembled. A 200 μl aliquot of the neutrophil preparation (1×10^6 cells/ml) in RPMI-1640 media containing 1% BSA was added to the top of the filter and incubated at 37° C. for 30 min. The filter was then fixed, stained and mounted on a glass microscope slide. The leading front was determined by the position of the leading two cells. The distance that the leading two cells had moved through the filter was measured for six fields on each filter. The measurements were made with four filters for each set of conditions."}, "RPMI-7951": {"system": "RPMI-7951", "settings": "16 hr", "quoted_text": "The cell lines (4×10^5 cells/well) in RPMI-1640 medium containing 10% fetal bovine serum were incubated with 10 μCi of Na2^51CrO4 (DuPont NEN Co.) for 60 min at 37° C. in a 24 well tissue culture plate. The cells were washed 3 times and then incubated in cell culture medium for 30 min at 37° C. to allow spontaneous lysis of marginally viable cells. […] The cells were cultured for 16 hr at 37° C. and then the radioactivity in the supernatants was counted in a gamma radiation spectrometer. Quadriplicate wells received cell culture medium alone or 2% SDS to determine spontaneous and maximum release, respectively. The percentage lysis was calculated by using the following formula: [formula]"}, "A375P melanoma cells": {"system": "A375P melanoma cells", "experiment": "Tumor cell growth, A375P", "format": "cell-based"}, "[2]": {"system": "SP2/o mouse myeloma cell lines", "experiment": "Growth of SP2/o myeloma cells stimulated by murine interleukin-6", "format": "cell-based"}, "[3]": {"system": "adenocarcinoma from breast tissue MCF-7", "experiment": "Tumor cell growth, MCF-7", "format": "cell-based"}, "[4]": {"system": "NCI-H292 (squamous cell carcinoma of lung)", "experiment": "Growth of NCI-H292, cell count", "format": "cell-based", "settings": "NCI-H292, 7 days, media replaced every 24 hour", "method": "FIG. 19. The effect of Antileukinate on growth of NCI-H292 (squamous cell carcinoma of lung). NCI-H292 cells were plated at a density of 5×10^3 cells in 24-well plate with growth medium. After the cells adhered to the plate, supernatants were aspirated and culture media containing various concentrations of Antileukinate were added to the wells. The media was replaced every 24 hour and the cells were cultured for 7 days. After incubation, cells were detatched with trypsin-EDTA and the cell number was counted using a hemocytometer. Cell number was decreased in a dose-dependent manner and there are significant differences from control at concentrations greater than, or equal to 50 μM of Antileukinate (p<0.05)."}, "[5]": {"system": "lung adenocarcinoma cell line KS-LU-1", "experiment": "Tumor cell growth, KS-LU-1", "format": "cell-based"}, "[6]": {"target": "T1, MIP-1α binding to human neutrophils (Homo sapiens, UniProt P32246)", "T1 construct": "endogenous in cells; host or cells: human neutrophils", "experiment": "Binding of radiolabeled MIP-1α to human neutrophils"}, "[7]": {"settings": "Hs 294T culture, 100 μM peptide", "quoted_text": "Analysis for the breakdown of Antileukinate in the culture of Hs 294T cells. A total concentration of tritium labeled and unlabeled Antileukinate of 100 μM, was added to the culture of Hs 294T cells. Aliquots of medium were removed at different times and chromatographed on an HPLC Bondapak C18 reversed phase column. The peptides were eluted using a gradient from 0.1% TFA to 80% acetonitrile in 0.1% TFA. One milliliter fractions were collected and measured for their radioactivity using a liquid scintillation counter. The chromatographs show the elution volume of the radioactivity at different times after addition to the cells.\nHs 294T and Hep G2 cells, 2×10^4 cell/well, were cultured in 24 well tissue culture plates for 24 hr. Then the culture media were replaced with media containing tritiated Antileukinate, 0.2 μCi, mixed with 100 μM unlabeled peptide in each well. The cells were then cultured for the indicated periods. The supernatants were collected and stored at −70° C. until use. The breakdown of Antileukinate during the cell culture was analyzed on high performance liquid chromatography (HPLC) using an analytical C18 reversed phase column (Waters Co., New Bedford, Mass.). […] One milliliter fractions were collected and measured for their radioactivity content using a liquid scintillation counter."}, "[8]": {"system": "lung adenocarcinoma cell line NCI-H441", "experiment": "Tumor cell growth, NCI-H441", "format": "cell-based"}, "[9]": {"system": "Hep G2 liver cancer cells", "experiment": "Cell growth assay, Hep G2", "format": "cell-based", "settings": "72 hr", "method": "FIG. 15C. The effect of Antileukinate on the growth of melanoma cells. Melanoma cell lines and a control liver cancer cell line (2×10^4 cells/well) in 500 μl were cultured in a 24 well tissue culture plate in the presence of various concentrations of Antileukinate for 3 d. The culture media were changed to fresh media containing the same concentration of Antileukinate every 24 hr during the incubation period. After incubation, the cells were collected and the cell number was counted using a hemocytometer. Liver cancer cell line, Hep G2. Analysis of variance was used for multiple comparison.\nThe cell lines (2×10^4 cells/well) in 500 μl cell culture medium were grown in 24 well tissue culture plates. After the cells adhered to the plate, the supernatants were aspirated and 500 μl of media containing various concentrations of Antileukinate were added to the wells. The cells were cultured for period indicated in the text. The culture media were changed to fresh media every 24 hr. After incubation, the cells were detached with trypsin-EDTA solution (Life Technologies Inc., Gaithersburg, Md., containing 0.05% of trypsin and 0.53 mM of EDTA in Hanks Balanced Salt Solution without Ca^2+ and Mg^2+) and the cell number was counted using a hemocytometer."}, "[10]": {"target": "T2, leukotriene B4 binding to human neutrophils (Homo sapiens, UniProt Q15722)", "T2 construct": "endogenous in cells; host or cells: human blood neutrophils", "experiment": "Binding of 3H-leukotriene B4 to human neutrophils", "settings": "100 μM peptide; 0.4 nM 3H-labeled leukotriene B4", "description": "To examine the specificity of Ac-RRWWCR-NH2 (SEQ ID NO:1) on ligand-receptor binding, the inventors tested whether the peptide reduced the binding of human ^125I-C5a or ^3H-leukotriene B4 to human neutrophils.\nRecombinant human fifth component of complement (C5a) (Sigma Chemical Co., St. Louis, Mo.) was radioiodinated enzymatically using Enzymobead (Bio Rad, Richmond, Calif.). Tritiated leukotriene B4 was purchased from Du Pont Co., Wilmington, Del. Binding assays for C5a and leukotriene B4 were performed as described for IL-8 binding in Example I, except that the buffers used were PBS containing 1 mM CaCl2, 0.5 mM MgCl2, 0.5% BSA, and HBSS containing 0.1% ovulabumin and 10 mM HEPES (pH7.3), respectively, as previously described (Braunwalder et al., 1992; Sherman et al., 1988). The radioactivity was measured with liquid scintillation counter for the leukotriene B4 assay. The binding of both ligands were saturable and inhibited by the non-labeled agonists in dose dependent manners."}}, "note": "Read-outs that look alike come from different tables or passages of the source.", "data": [{"substance": "RRWWCR [Ac-RRWWCR-NH2]", "values": [{"measurement": "effect on chemotaxis induced by fMLP", "setting": "[1]", "value": "had no effect on chemotaxis"}, {"measurement": "% cell lysis", "setting": "RPMI-7951; RPMI-7951, 1 μM peptide", "value": "−0.8 ± 2.2", "unit": "%"}, {"measurement": "% cell lysis", "setting": "RPMI-7951; RPMI-7951, 5 μM peptide", "value": "−2.6 ± 3.7", "unit": "%"}, {"measurement": "% cell lysis", "setting": "RPMI-7951; RPMI-7951, 20 μM peptide", "value": "−3.4 ± 6.3", "unit": "%"}, {"measurement": "% cell lysis", "setting": "RPMI-7951; RPMI-7951, 100 μM peptide", "value": "6.8 ± 11.1", "unit": "%"}, {"measurement": "effect on cell growth", "setting": "A375P melanoma cells", "value": "suppresses the growth"}, {"measurement": "effect on growth of SP2/o mouse myeloma cell lines", "setting": "[2]", "value": "did not affect the growth"}, {"measurement": "effect on cell growth", "setting": "[3]", "value": "inhibits growth"}, {"measurement": "concentrations with significant difference in cell number from control (p<0.05)", "setting": "[4]", "value": "≥ 50", "unit": "µM"}, {"measurement": "effect on cell growth", "setting": "[5]", "value": "inhibits growth"}, {"measurement": "effect on binding of radiolabeled MIP-1α", "setting": "[6]", "value": "did not affect the binding"}, {"measurement": "time within which the peptide is substantially eliminated from the culture", "setting": "[7]", "value": "≤ 24", "unit": "h"}, {"measurement": "decrease of the major radioactivity peak (intact peptide)", "setting": "[7]; after 24 hr", "value": "more than 85%"}, {"measurement": "effect on cell growth", "setting": "[8]", "value": "inhibits growth"}, {"measurement": "effect on growth of Hep G2 liver cancer cells", "setting": "[9]", "value": "did not affect the growth"}, {"measurement": "effect on binding of leukotriene B4 to neutrophils", "setting": "[10]", "value": "did not affect the binding"}]}]}
